Read-outs that look alike come from different tables or passages of the source.
Tests used:
[1] = tested on: vraSR promoter (Pvra-lux reporter in strain 923); test: Primary screen, relative luminescence (vraSR expression)
[2] = tested on: test strain 923 pPvra-lux (USA300 MRSA); test: Primary screen, relative growth in presence of oxacillin; conditions: compound 10 μM with oxacillin 2 μg/mL, absorbance 24 h, <0.50 = dead cells = hit
[3] = primary screen, compound 10 μM with oxacillin 2 μg/mL, <0.50 = vraSR repressed = hit

Compound: O=C(Nc1nnc(-c2ccccc2Cl)o1)c1cc(Cl)sc1Cl [F1374-58]
- RL avg (relative luminescence) [1, 3]: 0.33
- RG avg (relative growth) [2]: 0.03

Compound: COc1cccc2cc(C(=O)Nc3nnc(-c4cc(Cl)sc4Cl)o3)oc12 [F1374-2680]
- RL avg (relative luminescence) [1, 3]: 0.42
- RG avg (relative growth) [2]: 0.00

Compound: Cc1ccccc1C(=O)Nc1nnc(-c2ccc3c(c2)CCCC3)o1 [F0608-614]
- RL avg (relative luminescence) [1, 3]: −0.05
- RG avg (relative growth) [2]: 0.08

Compound: O=C(Nc1nnc(-c2ccc3c(c2)CCCC3)o1)c1cccc(C(F)(F)F)c1 [F0608-575]
- RL avg (relative luminescence) [1, 3]: −0.09
- RG avg (relative growth) [2]: −0.02

Compound: Cc1ccc(C)c(-c2nnc(NC(=O)c3ccc4ncsc4c3)o2)c1 [F2518-414]
- RL avg (relative luminescence) [1, 3]: −0.02
- RG avg (relative growth) [2]: 0.01

Compound: O=C(Nc1nnc(-c2cccnc2)o1)c1cc(Cl)cc(Cl)c1 [F0608-1062]
- RL avg (relative luminescence) [1, 3]: −0.10
- RG avg (relative growth) [2]: −0.04

Compound: COc1ccccc1-c1nnc(NC(=O)c2ccc(S(=O)(=O)N(C)c3ccccc3)cc2)o1 [F0559-127]
- RL avg (relative luminescence) [1, 3]: −0.11
- RG avg (relative growth) [2]: −0.05

Compound: CC1CCCCN1S(=O)(=O)c1ccc(C(=O)Nc2nnc(C3COc4ccccc4O3)o2)cc1 (stereo not drawn) [F0608-741]
- RL avg (relative luminescence) [1, 3]: −0.04
- RG avg (relative growth) [2]: −0.02

Compound: O=C(Nc1nnc(-c2ccc(Cl)s2)o1)c1ccccc1Oc1ccccc1 [F1374-1149]
- RL avg (relative luminescence) [1, 3]: 0.28
- RG avg (relative growth) [2]: −0.01

Compound: C=CCN(CC=C)S(=O)(=O)c1ccc(C(=O)Nc2nnc(-c3ccccc3OC)o2)cc1 [F0559-129]
- RL avg (relative luminescence) [1, 3]: −0.07
- RG avg (relative growth) [2]: −0.08

Compound: Cc1ccc(C)c(-c2nnc(NC(=O)c3ccc4c(c3)CCCC4)o2)c1 [F2518-373]
- RL avg (relative luminescence) [1, 3]: −0.05
- RG avg (relative growth) [2]: 0.05

Compound: CCC1CCCCN1S(=O)(=O)c1ccc(C(=O)Nc2nnc(Cc3ccc(OC)cc3)o2)cc1 (stereo not drawn) [F2368-619]
- RL avg (relative luminescence) [1, 3]: 0.01
- RG avg (relative growth) [2]: −0.03

Compound: COc1cc(-c2nnc(NC(=O)c3ccc(S(=O)(=O)N4CCCC4)cc3)o2)cc(OC)c1OC [F0559-311]
- RL avg (relative luminescence) [1, 3]: 0.02
- RG avg (relative growth) [2]: −0.06

Compound: COc1cc(OC)cc(-c2nnc(NC(=O)c3ccc(Cl)cc3Cl)o2)c1 [F1374-651]
- RL avg (relative luminescence) [1, 3]: 0.38
- RG avg (relative growth) [2]: 0.04

Compound: O=C(Nc1nnc(Cc2ccccc2)o1)c1cc(Cl)sc1Cl [F2368-63]
- RL avg (relative luminescence) [1, 3]: −0.02
- RG avg (relative growth) [2]: −0.01

Compound: O=C(Nc1nnc(-c2ccc3c(c2)CCCC3)o1)c1cccs1 [F0608-554]
- RL avg (relative luminescence) [1, 3]: −0.08
- RG avg (relative growth) [2]: −0.04

Compound: CCN(CC)S(=O)(=O)c1ccc(C(=O)Nc2nnc(-c3ccc4c(c3)CCCC4)o2)cc1 [F0608-543]
- RL avg (relative luminescence) [1, 3]: −0.08
- RG avg (relative growth) [2]: −0.02

Compound: O=C(Nc1nnc(-c2ccc(F)cc2)o1)c1ccc(Oc2ccccc2)cc1 [F1374-188]
- RL avg (relative luminescence) [1, 3]: 0.33
- RG avg (relative growth) [2]: 0.02

Compound: O=C(Nc1nnc(-c2ccccc2Cl)o1)c1sc2ccccc2c1Cl [F1374-43]
- RL avg (relative luminescence) [1, 3]: 0.35
- RG avg (relative growth) [2]: 0.04

Compound: COc1ccccc1-c1nnc(NC(=O)c2cc(-c3ccccc3)nc3ccccc23)o1 [F1374-254]
- RL avg (relative luminescence) [1, 3]: 0.36
- RG avg (relative growth) [2]: 0.06

Compound: O=C(Nc1nnc(-c2ccc3c(c2)CCCC3)o1)c1ccc2c(c1)OCCO2 [F0608-601]
- RL avg (relative luminescence) [1, 3]: −0.12
- RG avg (relative growth) [2]: −0.05

Compound: COc1cccc2cc(-c3nnc(NC(=O)c4ccc(S(=O)(=O)N(C)C)cc4)o3)oc12 [F2273-29]
- RL avg (relative luminescence) [1, 3]: 0.29
- RG avg (relative growth) [2]: 0.16

Compound: Cc1ccc(-c2nnc(NC(=O)c3ccc(S(=O)(=O)N4CCCCC4)cc3)o2)cc1C [F2767-26]
- RL avg (relative luminescence) [1, 3]: −0.05
- RG avg (relative growth) [2]: 0.03

Compound: O=C(Nc1nnc(-c2ccc3c(c2)CCCC3)o1)c1ccc(S(=O)(=O)N2CCOCC2)cc1 [F0608-560]
- RL avg (relative luminescence) [1, 3]: −0.07
- RG avg (relative growth) [2]: −0.07

Compound: O=C(Nc1nnc(-c2cc(Cl)ccc2Cl)o1)c1ccc2c(c1)CCCC2 [F2518-85]
- RL avg (relative luminescence) [1, 3]: −0.05
- RG avg (relative growth) [2]: 0.00

Compound: CC(C)Cn1c(N)c(C(=O)NCc2cccs2)c2nc3ccccc3nc21 [F3225-3356]
- RL avg (relative luminescence) [1, 3]: 0.01
- RG avg (relative growth) [2]: 0.39

Compound: Cc1ccc(-c2nnc(NC(=O)c3ccc(S(=O)(=O)N4CCCCC4C)cc3)o2)c(C)c1 (stereo not drawn) [F2518-228]
- RL avg (relative luminescence) [1, 3]: −0.14
- RG avg (relative growth) [2]: 0.00

Compound: COc1ccccc1-c1nnc(NC(=O)c2cc(-c3cccs3)nc3ccccc23)o1 [F1374-255]
- RL avg (relative luminescence) [1, 3]: 0.36
- RG avg (relative growth) [2]: 0.00

Compound: COc1ccccc1-c1nnc(NC(=O)c2ccc(-c3ccccc3)cc2)o1 [F1374-220]
- RL avg (relative luminescence) [1, 3]: 0.35
- RG avg (relative growth) [2]: 0.01

Compound: CC1CN(S(=O)(=O)c2ccc(C(=O)Nc3nnc(-c4ccc(F)cc4)o3)cc2)CC(C)O1 (stereo not drawn) [F0559-107]
- RL avg (relative luminescence) [1, 3]: −0.06
- RG avg (relative growth) [2]: −0.05

Compound: Cc1ccc(C)c(-c2nnc(NC(=O)c3cccc(F)c3)o2)c1 [F2518-301]
- RL avg (relative luminescence) [1, 3]: −0.10
- RG avg (relative growth) [2]: −0.01

Compound: Cc1ccc(C)c(-c2nnc(NC(=O)c3cc(Cl)sc3Cl)o2)c1 [F2518-360]
- RL avg (relative luminescence) [1, 3]: 0.13
- RG avg (relative growth) [2]: 0.04

Compound: O=C(Nc1nnc(-c2ccc(Br)cc2)o1)c1ccc2c(c1)CCCC2 [F2518-517]
- RL avg (relative luminescence) [1, 3]: −0.08
- RG avg (relative growth) [2]: 0.01

Compound: Cc1ccc(C)c(-c2nnc(NC(=O)c3cccc(Br)c3)o2)c1 [F2518-303]
- RL avg (relative luminescence) [1, 3]: −0.02
- RG avg (relative growth) [2]: 0.00

Compound: O=C(Nc1nnc(-c2cc(Cl)sc2Cl)o1)c1ccc(F)cc1F [F1374-2707]
- RL avg (relative luminescence) [1, 3]: 0.32
- RG avg (relative growth) [2]: 0.00

Compound: CC(C)c1ccc(Cc2nnc(NC(=O)c3ccc4ncsc4c3)o2)cc1 [F2368-1143]
- RL avg (relative luminescence) [1, 3]: −0.09
- RG avg (relative growth) [2]: −0.01

Compound: COc1cccc(C(=O)Nc2nnc(-c3ccc(C)c(C)c3)o2)c1 [F2767-17]
- RL avg (relative luminescence) [1, 3]: −0.15
- RG avg (relative growth) [2]: 0.00

Compound: COc1cc(OC)cc(C(=O)Nc2nnc(-c3ccc(Br)cc3)o2)c1 [F2518-451]
- RL avg (relative luminescence) [1, 3]: −0.10
- RG avg (relative growth) [2]: −0.01

Compound: O=C(Nc1nnc(-c2cc(Cl)ccc2Cl)o1)c1ccc(Br)s1 [F2518-41]
- RL avg (relative luminescence) [1, 3]: −0.03
- RG avg (relative growth) [2]: 0.00

Compound: Cc1ccc(-c2nnc(NC(=O)c3ccc(Cl)s3)o2)c(C)c1 [F2518-186]
- RL avg (relative luminescence) [1, 3]: −0.09
- RG avg (relative growth) [2]: 0.01

Compound: Cc1ccc(Cc2nnc(NC(=O)c3ccc(S(=O)(=O)N(C)c4ccccc4)cc3)o2)c(C)c1 [F2368-431]
- RL avg (relative luminescence) [1, 3]: −0.06
- RG avg (relative growth) [2]: −0.02

Compound: CC1CC(C)CN(S(=O)(=O)c2ccc(C(=O)Nc3nnc(-c4ccc(F)cc4)o3)cc2)C1 (stereo not drawn) [F0559-106]
- RL avg (relative luminescence) [1, 3]: −0.07
- RG avg (relative growth) [2]: −0.07

Compound: O=C(Nc1nnc(-c2ccccc2Cl)o1)c1cccc(Br)c1 [F1374-14]
- RL avg (relative luminescence) [1, 3]: 0.38
- RG avg (relative growth) [2]: 0.24

Compound: O=C(Nc1nnc(-c2cccs2)o1)c1cccc(C(F)(F)F)c1 [F1374-982]
- RL avg (relative luminescence) [1, 3]: 0.35
- RG avg (relative growth) [2]: 0.13

Compound: O=C(Nc1nnc(-c2ccc(Cl)s2)o1)c1ccc(Cl)cc1 [F1374-1055]
- RL avg (relative luminescence) [1, 3]: 0.50
- RG avg (relative growth) [2]: 0.02

Compound: O=C(COc1ccc(Cl)cc1Cl)Nc1nnc(-c2ccc(Cl)s2)o1 [F1374-1102]
- RL avg (relative luminescence) [1]: 0.49
- RG avg (relative growth) [2]: 0.13

Compound: CCOc1cc(C(=O)Nc2nnc(-c3ccccc3SC)o2)cc(OCC)c1OCC [F2645-99]
- RL avg (relative luminescence) [1, 3]: 0.43
- RG avg (relative growth) [2]: 0.09

Compound: O=C(Nc1nnc(-c2ccc3c(c2)CCCC3)o1)c1ccc(Cl)cc1Cl [F0608-661]
- RL avg (relative luminescence) [1, 3]: −0.04
- RG avg (relative growth) [2]: 0.11

Compound: COc1cccc2cc(-c3nnc(NC(=O)c4cccc(F)c4)o3)oc12 [F2273-13]
- RL avg (relative luminescence) [1, 3]: −0.06
- RG avg (relative growth) [2]: −0.03

Compound: C=CCN(CC=C)S(=O)(=O)c1ccc(C(=O)Nc2nnc(-c3ccc(OC)cc3)o2)cc1 [F0559-189]
- RL avg (relative luminescence) [1, 3]: −0.08
- RG avg (relative growth) [2]: −0.05

Compound: Cc1ccc(-c2nnc(NC(=O)c3cccc(C(F)(F)F)c3)o2)c(C)c1 [F2518-189]
- RL avg (relative luminescence) [1, 3]: −0.02
- RG avg (relative growth) [2]: 0.01

Compound: O=C(Nc1nnc(-c2cc(Cl)ccc2Cl)o1)c1cc(-c2ccccc2)nc2ccccc12 [F2518-55]
- RL avg (relative luminescence) [1, 3]: −0.02
- RG avg (relative growth) [2]: 0.00

Compound: Cc1ccc(-c2nnc(NC(=O)c3ccc(Cl)cc3Cl)o2)c(C)c1 [F2518-166]
- RL avg (relative luminescence) [1, 3]: −0.10
- RG avg (relative growth) [2]: −0.02

Compound: CC1(C)COCN1S(=O)(=O)c1ccc(C(=O)Nc2nnc(-c3ccc(Cl)s3)o2)cc1 [F0559-390]
- RL avg (relative luminescence) [1, 3]: −0.11
- RG avg (relative growth) [2]: −0.06

Compound: CSc1ccccc1-c1nnc(NC(=O)c2ccc(F)cc2)o1 [F2645-12]
- RL avg (relative luminescence) [1, 3]: 0.51
- RG avg (relative growth) [2]: 0.41

Compound: Cc1ccc(C)c(-c2nnc(NC(=O)c3cccc(Cl)c3)o2)c1 [F2518-295]
- RL avg (relative luminescence) [1, 3]: −0.09
- RG avg (relative growth) [2]: 0.01

Compound: CCOc1cc(-c2nnc(NC(=O)C(c3ccccc3)c3ccccc3)o2)cc(OCC)c1OCC [F2517-165]
- RL avg (relative luminescence) [1, 3]: −0.07
- RG avg (relative growth) [2]: 0.31

Compound: O=C(Nc1nnc(-c2cc(Cl)ccc2Cl)o1)c1cc(Cl)ccc1Cl [F2518-49]
- RL avg (relative luminescence) [1, 3]: −0.05
- RG avg (relative growth) [2]: −0.03

Compound: COc1cccc(-c2nnc(NC(=O)c3ccc(S(=O)(=O)N(C)C4CCCCC4)cc3)o2)c1 [F0559-158]
- RL avg (relative luminescence) [1, 3]: −0.07
- RG avg (relative growth) [2]: 0.03

Compound: O=C(Nc1nnc(-c2ccc(F)cc2)o1)c1ccc(F)cc1 [F1374-116]
- RL avg (relative luminescence) [1, 3]: 0.34
- RG avg (relative growth) [2]: 0.00
